According to the supplement of paper PMC12592484:

Key:
Assay in all cases: drug sensitivity score (DSS2, normalised partial AUC of dose-response, 72 h CellTiter-Glo viability) (DSS (dimensionless)); higher = more sensitive (stronger growth inhibition / cytotoxicity); extreme values may be limits of the assay
[1] = tested on: CAF#1 (primary prostate cancer-associated fibroblasts of myCAF-like type)
Procedure, shortened: (§1)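 Viability of low-passage primary prostate cancer-associated fibroblasts, PF179T, WPMY-1, LNCaP and 22Rv1 cells was read by CellTiter-Glo 2.0 luminescence 72 h after seeding onto compounds pre-dispensed in 384-well plates at five doses over a 10,000-fold range. Readings were scaled between vehicle and positive-control wells. Sensitivity is reported as a drug sensitivity score from BREEZE, namely a partial area under the fitted logistic curve divided by the log of its upper asymptote, where higher means more sensitive.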

[2] = tested on: CAF#6 (primary prostate cancer-associated fibroblasts of iCAF-like type)
Procedure, shortened: as §1

[3] = tested on: CAF#3 (primary prostate cancer-associated fibroblasts of myCAF-like type)
Procedure, shortened: as §1

[4] = tested on: 22Rv1
Procedure, shortened: as §1

[5] = tested on: CAF#4 (primary prostate cancer-associated fibroblasts of iCAF-like type)
Procedure, shortened: as §1

[6] = tested on: WPMY-1
Procedure, shortened: as §1

[7] = tested on: CAF#2 (primary prostate cancer-associated fibroblasts of iCAF-like type)
Procedure, shortened: as §1

[8] = tested on: CAF#5 (primary prostate cancer-associated fibroblasts of myCAF-like type)
Procedure, shortened: as §1

[9] = tested on: CAF#7 (primary prostate cancer-associated fibroblasts of myCAF-like type)
Procedure, shortened: as §1

[10] = tested on: LNCAP
Procedure, shortened: as §1

[11] = tested on: PF179T
Procedure, shortened: as §1

SMILES | drug sensitivity score [1] | drug sensitivity score [2] | drug sensitivity score [3] | drug sensitivity score [4] | drug sensitivity score [5] | drug sensitivity score [6] | drug sensitivity score [7] | drug sensitivity score [8] | drug sensitivity score [9] | drug sensitivity score [10] | drug sensitivity score [11]
COc1ccccc1S(=O)(=O)Nc1ccc2c(c1)CN(C)C(=O)N2 [PFI-1] (tested concentration range 3-30000 nM) | 3.1 | 1.8 | 4.3 | 6.6 | 1.3 | 4.2 | 2.1 | 1 | 3.4 | 6.4 | 2.6
CN1CCN(c2cc(C(=O)Nc3ccc4c(c3)-c3c(c(C(N)=O)nn3-c3ccc(F)cc3)CC4)c(Cl)cn2)CC1 [PHA 408] (tested concentration range 1-10000 nM) | 7.2 | 1.2 | 2.9 | 6.1 | 4.2 | 4.6 | 7 | 5.9 | 3.7 | 7.4 | 1.4
O=C(Nc1cc(Cl)cc2c1[nH]c1cnccc12)c1cccnc1 [PS-1145] (tested concentration range 2.5-25000 nM) | 3.1 | 0.1 | 1.3 | 0 | 0 | 0.1 | 4.1 | 2.5 | 0 | 0 | 3.5
CC(=O)O[C@H]1C(=O)[C@@]2(C)[C@H]([C@H](OC(=O)c3ccccc3)[C@]3(O)C[C@H](OC(=O)[C@H](O)[C@@H](NC(=O)c4ccccc4)c4ccccc4)C(C)=C1C3(C)C)[C@]1(OC(C)=O)CO[C@@H]1C[C@@H]2O [Paclitaxel] (tested concentration range 0.1-1000 nM) | 14.8 | 15.3 | 10.8 | 22.4 | 8.8 | 26.4 | 16.8 | 15.4 | 24.2 | 31.3 | 18.2
C1=N/C2=N/c3ccc(OCCN4CCCC4)c(c3)COC/C=C/COCc3cccc(c3)C(=C1)N2 [Pacritinib] (tested concentration range 1-10000 nM) | 6.7 | 8.2 | 9.4 | 8.6 | 6.1 | 10.5 | 7.8 | 7.3 | 8.1 | 8.4 | 4.5
CC(=O)c1c(C)c2cnc(Nc3ccc(N4CCNCC4)cn3)nc2n(C2CCCC2)c1=O [Palbociclib] (tested concentration range 1-10000 nM) | 2.5 | 1.4 | 0 | 7.9 | 3.3 | 2.1 | 7.4 | 4.9 | 2 | 7.7 | 5.1
Cc1[nH]c2ccccc2c1CCNCc1ccc(/C=C/C(=O)NO)cc1 [Panobinostat] (tested concentration range 0.1-1000 nM) | 11.3 | 9.3 | 7.7 | 23.2 | 8 | 22.9 | 11.4 | 10.4 | 7.9 | 23.1 | 10.9
Cc1ccc(Nc2nccc(N(C)c3ccc4c(C)n(C)nc4c3)n2)cc1S(N)(=O)=O [Pazopanib] (tested concentration range 1-10000 nM) | 3.6 | 1.1 | 4 | 0 | 5.4 | 0.2 | 6.7 | 3.7 | 5.1 | 4.1 | 5
Nc1nc2[nH]cc(CCc3ccc(C(=O)N[C@@H](CCC(=O)O)C(=O)O)cc3)c2c(=O)[nH]1 [Pemetrexed] (tested concentration range 1-10000 nM) | 1.2 | 0 | 0.5 | 0 | 0 | 13.5 | 0 | 0 | 0 | 9.4 | 0.1
OC[C@H]1O[C@@H](n2cnc3c2N=CNC[C@H]3O)C[C@@H]1O [Pentostatin] (tested concentration range 1-10000 nM) | 0 | 0 | 0 | 0 | 0 | 0 | 0 | 0 | 0 | 0 | 0
NS(=O)(=O)OC[C@@H]1C[C@@H](n2ccc3c(N[C@H]4CCc5ccccc54)ncnc32)C[C@@H]1O [Pevonedistat] (tested concentration range 1-10000 nM) | 4.4 | 5.7 | 0 | 18.9 | 7 | 12.6 | 13 | 9 | 5 | 29.6 | 6.4
FC(F)(F)c1ccc(CNc2ccc(Cc3c[nH]c4ncc(Cl)cc34)cn2)cn1 [Pexidartinib] (tested concentration range 1-10000 nM) | 4.8 | 0 | 1.2 | 0 | 3 | 0.6 | 5.9 | 5.1 | 2.7 | 1.4 | 1.7
CS(=O)(=O)N1CCN(Cc2cc3nc(-c4cccc5[nH]ncc45)nc(N4CCOCC4)c3s2)CC1 [Pictilisib] (tested concentration range 1-10000 nM) | 11.7 | 7.7 | 10.9 | 16.1 | 10.9 | 12 | 11.5 | 12 | 9.3 | 13.7 | 11.2
CC[C@@H]1C(=O)OC[C@@H]1Cc1cncn1C [Pilocarpine] (tested concentration range 4-40000 nM) | 0.8 | 0 | 0 | 0 | 0 | 0 | 0 | 1.5 | 0 | 0 | 0
CC(C)N(C[C@H]1O[C@@H](n2cnc3c(N)ncnc32)[C@H](O)[C@@H]1O)[C@H]1C[C@@H](CCc2nc3cc(C(C)(C)C)ccc3[nH]2)C1 [Pinometostat] (tested concentration range 0.1-1000 nM) | 0 | 0 | 1.5 | 0 | 0 | 0 | 0 | 0 | 0 | 0 | 0
Cc1ccc(=O)n(-c2ccccc2)c1 [Pirfenidone] (tested concentration range 1-10000 nM) | 0 | 0 | 0 | 0 | 0 | 0 | 0 | 0 | 0 | 0 | 0
Nc1cccc2c1C(=O)N(C1CCC(=O)NC1=O)C2=O (stereo not drawn) [Pomalidomide] (tested concentration range 1-10000 nM) | 0 | 0 | 0 | 0 | 0 | 0 | 0 | 0 | 0 | 0 | 0
C=CC(=O)N1CCC(Oc2cc3c(Nc4ccc(Cl)c(Cl)c4F)ncnc3cc2OC)CC1 [Poziotinib] (tested concentration range 0.1-1000 nM) | 0 | 0 | 0.3 | 0.5 | 0 | 1 | 0 | 0 | 0 | 3.9 | 0
CCCCc1nc2cc(/C=C/C(=O)NO)ccc2n1CCN(CC)CC [Pracinostat] (tested concentration range 1-10000 nM) | 10.7 | 9.2 | 9 | 20 | 10.6 | 20 | 13.7 | 10.3 | 8.4 | 20.3 | 9.9
CC[C@H](C)C(=O)O[C@H]1C[C@H](O)C=C2C=C[C@H](C)[C@H](CC[C@@H](O)C[C@@H](O)CC(=O)O)[C@H]21 [Pravastatin] (tested concentration range 1-10000 nM) | 0 | 0 | 0 | 0 | 0 | 0 | 0.3 | 0 | 0 | 0 | 0
C[C@]12C=CC(=O)C=C1CC[C@@H]1[C@@H]2[C@@H](O)C[C@@]2(C)[C@H]1CC[C@]2(O)C(=O)CO [Prednisolone] (tested concentration range 1-10000 nM) | 0 | 0 | 0 | 0 | 0 | 0 | 0 | 0 | 0 | 0 | 0
COc1cccc(OCCCN)c1-c1cc(Nc2cnc(C#N)cn2)n[nH]1 [Prexasertib] (tested concentration range 1-10000 nM) | 8.6 | 6.8 | 4.9 | 24.4 | 8.7 | 29.7 | 16.6 | 9.1 | 5.4 | 24.3 | 14.5
CC(C)(C)c1cc(NC(=O)Nc2ccc(-c3cn4c(n3)sc3cc(OCCN5CCOCC5)ccc34)cc2)no1 [Quizartinib] (tested concentration range 0.1-1000 nM) | 0.3 | 0 | 0 | 0 | 0 | 1.4 | 2.3 | 1.5 | 0 | 0 | 0
